Data published in US20060263802A1 (priority 2003, published 2006).

Assays:
Format in all cases: binding
[1] = test system: human monoclonal antibody CRJB
[2] = test system: human monoclonal antibody CR57
[3] = test system: human monoclonal antibody CRJA
[4] = test system: human monoclonal antibody CRJB; remark: listed apart in the source
[5] = test system: human monoclonal antibody CR57; remark: listed apart in the source
[6] = test system: human monoclonal antibody CRJA; remark: listed apart in the source

In the case of LMEADAHYKSVRTWN, the “Binding of CRJB to linear peptide (PEPSCAN-ELISA signal)” value (“Binding of CRJB to linear peptide” below) [1] is reported as 107, the “Binding of CR57 to linear peptide (PEPSCAN-ELISA signal)” value (shortened to “Binding of CR57 to linear peptide”) [2] is reported as 73 and the “Binding of CRJA to linear peptide (PEPSCAN-ELISA signal)” value (“Binding of CRJA to linear peptide” for short) [3] is reported as 46. For the same sequence, the “Binding of CRJB (10 μg/ml) to looped/cyclic peptide (PEPSCAN-ELISA)” value [4] was 72, the “Binding of CR57 (10 μg/ml) to looped/cyclic peptide (PEPSCAN-ELISA)” value [5] was 41 and the “Binding of CRJA (10 μg/ml) to looped/cyclic peptide (PEPSCAN-ELISA)” value [6] was 43.

FFNGIILGPDGNVLI was tested, and the “Binding of CRJB to linear peptide” value [1] was 143, the “Binding of CR57 to linear peptide” value [2] was 92 and the “Binding of CRJA to linear peptide” value [3] was 119. For the same sequence, the “Binding of CRJB (10 μg/ml) to looped/cyclic peptide (PEPSCAN-ELISA)” value [4] was 96, the “Binding of CR57 (10 μg/ml) to looped/cyclic peptide (PEPSCAN-ELISA)” value [5] was 72 and the “Binding of CRJA (10 μg/ml) to looped/cyclic peptide (PEPSCAN-ELISA)” value [6] was 100.

With SVRTWNEILPSKGCL the “Binding of CRJB to linear peptide” value [1] was 138, the “Binding of CR57 to linear peptide” value [2] was 106 and the “Binding of CRJA to linear peptide” value [3] was 123. For the same sequence, the “Binding of CRJB (10 μg/ml) to looped/cyclic peptide (PEPSCAN-ELISA)” value [4] was 147, the “Binding of CR57 (10 μg/ml) to looped/cyclic peptide (PEPSCAN-ELISA)” value [5] was 151 and the “Binding of CRJA (10 μg/ml) to looped/cyclic peptide (PEPSCAN-ELISA)” value [6] was 165.

With LRTVKTTKESLVIIS the “Binding of CRJB to linear peptide” value [1] was 104, the “Binding of CR57 to linear peptide” value [2] was 65 and the “Binding of CRJA to linear peptide” value [3] was 83. The “Binding of CRJB (10 μg/ml) to looped/cyclic peptide (PEPSCAN-ELISA signal)” value [4] was 68, the “Binding of CR57 (10 μg/ml) to looped/cyclic peptide (PEPSCAN-ELISA signal)” value [5] was 89 and the “Binding of CRJA (10 μg/ml) to looped/cyclic peptide (PEPSCAN-ELISA signal)” value [6] was 86.

NSRGKRASKGSETCG was tested, and the “Binding of CRJB to linear peptide” value [1] was 100, the “Binding of CR57 to linear peptide” value [2] was 92 and the “Binding of CRJA to linear peptide” value [3] was 63. For the same sequence, the “Binding of CRJB (10 μg/ml) to looped/cyclic peptide (PEPSCAN-ELISA signal)” value [4] was 60, the “Binding of CR57 (10 μg/ml) to looped/cyclic peptide (PEPSCAN-ELISA signal)” value [5] was 107 and the “Binding of CRJA (10 μg/ml) to looped/cyclic peptide (PEPSCAN-ELISA signal)” value [6] was 71.

In the case of LAIKMNGFTCTGVVT, the “Binding of CRJB to linear peptide” value [1] is reported as 130, the “Binding of CR57 to linear peptide” value [2] is reported as 68 and the “Binding of CRJA to linear peptide” value [3] is reported as 112. For the same sequence, the “Binding of CRJB (10 μg/ml) to looped/cyclic peptide (PEPSCAN-ELISA signal)” value [4] was 91, the “Binding of CR57 (10 μg/ml) to looped/cyclic peptide (PEPSCAN-ELISA signal)” value [5] was 76 and the “Binding of CRJA (10 μg/ml) to looped/cyclic peptide (PEPSCAN-ELISA signal)” value [6] was 79.

In the case of RLGMSCDIFTNSRGK, the “Binding of CRJB to linear peptide” value [1] is reported as 106, the “Binding of CR57 to linear peptide” value [2] is reported as 88 and the “Binding of CRJA to linear peptide” value [3] is reported as 92. The “Binding of CRJB (10 μg/ml) to looped/cyclic peptide (PEPSCAN-ELISA signal)” value [4] was 104, the “Binding of CR57 (10 μg/ml) to looped/cyclic peptide (PEPSCAN-ELISA signal)” value [5] was 105 and the “Binding of CRJA (10 μg/ml) to looped/cyclic peptide (PEPSCAN-ELISA signal)” value [6] was 110.

With LPDVHNQVSGVDLGL the “Binding of human monoclonal antibody CRJB to linear peptide (PEPSCAN-ELISA signal)” value [1] was 154, the “Binding of human monoclonal antibody CR57 to linear peptide (PEPSCAN-ELISA signal)” value [2] was 104 and the “Binding of human monoclonal antibody CRJA to linear peptide (PEPSCAN-ELISA signal)” value [3] was 97. The “Binding of CRJB to looped/cyclic peptide (PEPSCAN-ELISA signal)” value [4] was 118, the “Binding of CR57 to looped/cyclic peptide (PEPSCAN-ELISA signal)” value [5] was 116 and the “Binding of CRJA to looped/cyclic peptide (PEPSCAN-ELISA signal)” value [6] was 98.

For KLCGVLGLRLMDGTW, the “Binding of CRJB to linear peptide” value [1] was 132, the “Binding of CR57 to linear peptide” value [2] was 3152 and the “binding of antibody CR57 to linear peptide (PEPSCAN OD)” value [2] was “bound”. For the same sequence, the “strength of binding of CR57 (OD value compared with the other peptides / twice the average value)” value [2] was “most prominent”, the “Binding of CRJA to linear peptide” value [3] was 96 and the “Binding of CRJB (10 μg/ml) to looped/cyclic peptide (PEPSCAN-ELISA)” value [4] was 68. The “Binding of CR57 (10 μg/ml) to looped/cyclic peptide (PEPSCAN-ELISA)” value [5] was 120 and the “Binding of CRJA (10 μg/ml) to looped/cyclic peptide (PEPSCAN-ELISA)” value [6] was 82.

IMTTKSVSFRRLSHL was tested, and the “Binding of CRJB to linear peptide” value [1] was 101, the “Binding of CR57 to linear peptide” value [2] was 43 and the “Binding of CRJA to linear peptide” value [3] was 85. For the same sequence, the “Binding of CRJB (10 μg/ml) to looped/cyclic peptide (PEPSCAN-ELISA)” value [4] was 42, the “Binding of CR57 (10 μg/ml) to looped/cyclic peptide (PEPSCAN-ELISA)” value [5] was 74 and the “Binding of CRJA (10 μg/ml) to looped/cyclic peptide (PEPSCAN-ELISA)” value [6] was 63.

For SLVIISPSVADLDPY, the “Binding of CRJB to linear peptide” value [1] was 105, the “Binding of CR57 to linear peptide” value [2] was 68 and the “Binding of CRJA to linear peptide” value [3] was 88. The “Binding of CRJB (10 μg/ml) to looped/cyclic peptide (PEPSCAN-ELISA signal)” value [4] was 85, the “Binding of CR57 (10 μg/ml) to looped/cyclic peptide (PEPSCAN-ELISA signal)” value [5] was 98 and the “Binding of CRJA (10 μg/ml) to looped/cyclic peptide (PEPSCAN-ELISA signal)” value [6] was 87.

With CSGVAVSSTYCSTNH the “Binding of CRJB to linear peptide” value [1] was 165, the “Binding of CR57 to linear peptide” value [2] was 110 and the “Binding of CRJA to linear peptide” value [3] was 106. For the same sequence, the “Binding of CRJB (10 μg/ml) to looped/cyclic peptide (PEPSCAN-ELISA signal)” value [4] was 90, the “Binding of CR57 (10 μg/ml) to looped/cyclic peptide (PEPSCAN-ELISA signal)” value [5] was 94 and the “Binding of CRJA (10 μg/ml) to looped/cyclic peptide (PEPSCAN-ELISA signal)” value [6] was 94.
